Results as given in patent US20190160084A1, “METHODS FOR THE TREATMENT OF CANCER USING MEGLUMINE” (Dynamis Pharmaceuticals, Inc., priority 2016, published 2019).

What was measured:
skin tumors = conditions: DFMO given during the promotion phase; cited from earlier work
THP-1 cells = experiment: LPS-induced cytokine levels in media of THP-1 cells (Bio-Plex immunoassay); format: cell-based, human; conditions: 25 ng LPS, 40 or 80 mM meglumine hydrochloride, 24 hours
Method: THP-1 cells (human acute monocytic leukemia) were grown in a 24-well polystyrene plate in 1 ml of RPMI media with 10% fetal bovine serum. Cells were treated with 25 ng of lipopolysaccharide (LPS) (Sigma) in the presence or absence of 40 or 80 mM meglumine hydrochloride. After 24 hours, the media was centrifuged to remove the cells and analyzed for cytokine content using a Bio-Plex® immunoassay (Bio-Rad). The LPS induced levels of IL-17, IL-8, MIP-1 alpha, MIP-1 beta, IL-9 and IP-10 were decreased in the presence of meglumine (FIG. 5).

[1] = Tolerability of meglumine in the drinking water (water consumption, adverse effects); format: in vivo; conditions: 37.5 mM meglumine in drinking water ad lib; K6/ODC transgenic mice and normal littermates
Method: (§1) Upon weaning, K6/ODC transgenic mice and their normal littermates were divided into two treatment groups where they received ad lib either tap water or water with 37.5 mM meglumine (Sigma Chemical Co.) in their drinking water. Meglumine-containing water was changed twice a week. […] Mice were monitored for tumor development. Tumor growth was assessed morphometrically using calipers, and tumor volumes were calculated according to the formula V (mm^3)=π/6×A×B^2 (A is larger diameter, B is the smaller diameter) (Buzzai et al.).

[2] = tested on: skin tumors in DMBA-initiated K6/ODC transgenic mice; experiment: Skin tumor formation and growth in DMBA-initiated K6/ODC transgenic mice, meglumine in drinking water; format: in vivo
Method: K6/ODC transgenic mice are highly susceptible to developing skin tumors following a single treatment with a low subthreshold dose of the carcinogen DMBA. The effect of oral administration of meglumine in the drinking water was tested on the formation and growth of skin tumors in DMBA-initiated K6/ODC transgenic mice and their normal littermates. Four day old K6/ODC transgenic mice and their normal littermates were initiated with a single topical application of 300 nmol DMBA in 50 μl acetone.
as §1

[3] = K6/ODC transgenic mice, compared to control water, monitored 4 months

## NCCC[C@](N)(C(=O)O)C(F)F [DFMO, α-difluoromethylornithine]
Skin tumors
  development of skin tumors: inhibits

## CNC[C@H](O)[C@@H](O)[C@H](O)[C@H](O)CO.Cl [meglumine hydrochloride]
THP-1 cells
  LPS induced level of IL-8: decreased
  LPS induced level of IL-9: decreased
  LPS induced level of IL-17: decreased
  LPS induced level of IP-10: decreased
  LPS induced level of MIP-1 alpha: decreased
  LPS induced level of MIP-1 beta: decreased

## CNC[C@H](O)[C@@H](O)[C@H](O)[C@H](O)CO [meglumine, (2R,3R,4R,5S)-6-methylaminohexane-1,2,3,4,5-pentol]
[1]
  adverse effects (weight loss, lethargy, ruffed fur, diarrhea, or general malaise): nor did it have any adverse effects
  consumption of water: did not affect
[2]; K6/ODC transgenic mice (6/6), 37.5 mM meglumine in drinking water, control (5/5): 50 days
  age at which all mice had skin tumors: 73 days of age
[2]; K6/ODC transgenic mice, 37.5 mM meglumine in drinking water, control tap water: 45 days
  age at which skin tumors first developed: 60 days of age
[2]; K6/ODC transgenic mice, at any given age, compared to control tap water, monitored 4 months
  numbers of skin tumors: fewer
[2]; [3]
  cumulative tumor burden (average total tumor volume per mouse): lower
  tumor growth: slowed
[2]; normal littermates n=10, with or without meglumine-supplemented water, single subthreshold dose of DMBA
  skin tumor development in normal littermates: no normal littermates
